Test results: patent US8697691B2, “Alkyl 3-((2-amidoethyl)amino)-8-azabicyclo[3.2.1]octane-8-carboxylate analogs as selective M1 agonists and methods of making and using same” (Vanderbilt University, priority 2009, dated 2014)
Where two headings read alike, the source gives them in different places.

Legend:
human M1 receptor = biological target: T1, human M1 receptor (Homo sapiens, UniProt P11229); assay: Calcium mobilization assay, CHO-K1 cells stably expressing hM1 (high throughput, FDSS 6000); type: cell-based; conditions: for Emax: CHO-K1, read-out: Efficacy (% Max ACh)
T1 construct: host or cells: CHO-K1
T1 sequence (P11229 1-460): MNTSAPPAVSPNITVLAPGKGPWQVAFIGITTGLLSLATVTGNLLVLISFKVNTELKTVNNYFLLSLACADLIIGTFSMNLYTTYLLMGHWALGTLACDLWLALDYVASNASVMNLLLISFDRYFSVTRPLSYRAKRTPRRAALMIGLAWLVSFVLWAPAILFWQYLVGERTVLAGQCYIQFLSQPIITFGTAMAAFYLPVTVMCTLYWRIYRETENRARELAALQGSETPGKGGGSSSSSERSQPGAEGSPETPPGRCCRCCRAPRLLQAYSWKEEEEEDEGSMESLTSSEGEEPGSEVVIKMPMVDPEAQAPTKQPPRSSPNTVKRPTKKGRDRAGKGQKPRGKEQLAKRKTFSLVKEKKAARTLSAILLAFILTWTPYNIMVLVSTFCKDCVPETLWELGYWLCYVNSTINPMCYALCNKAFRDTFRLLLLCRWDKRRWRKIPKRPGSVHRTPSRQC
Excerpt: Chinese hamster ovary (CHO-K1) cells stably expressing rat (r)M1 were purchased from the American Type Culture Collection and cultured according to their indicated protocol. CHO cells stably expressing human (h)M2, hM3, and hM5 were described previously (Levey et al., 1991); hM1 and hM4 cDNAs were purchased from Missouri S&T cDNA Resource; rM4 cDNA was provided by T. I. Bonner (National Institutes of Health, Bethesda, Md.). hM1, hM4, and rM4 cDNAs were used to stably transfect CHO-K1 cells purchased from the American Type Culture Collection using Lipofectamine2000. To make stable hM2, hM4 and rM4 cell lines for use in calcium mobilization assays, these cells also were stably transfected with a chimeric G-protein (Gqi5) (provided by B. R. Conklin, University of California, San Francisco) using Lipofectamine 2000. rM1, hM3, and hM5 cells were grown in Ham's F-12 medium containing 10% heat-inactivated fetal bovine serum (FBS), 20 mM HEPES, and 50 μg/mL G418 sulfate. hM2-Gqi5 and hM4-Gqi5 cells were grown in the same medium also containing 500 μg/mL Hygromycin B. Stable rM4-Gqi5 cells were grown in DMEM containing 10% heat-inactivated FBS, 20 mM HEPES, 400 μg/mL G418 sulfate, and 500 μg/mL Hygromycin B. The rat M1 Y381A orthosteric mutant receptor cDNA was generated using the Quik-Change site-directed mutagenesis kit (Stratagene) and verified by sequencing. CHO-K1 cells were stably transfected with this cDNA using Lipofectamine2000 and screened for expression based on calcium mobilization in response to the allosteric M1 agonist N-desmethylclozapine.
For high throughput measurement of agonist-evoked increases in intracellular calcium, CHO-K1 cells stably expressing muscarinic receptors were plated in growth medium lacking G418 and hygromycin at 15,000 cells/20 μL/well (hM1, hM2-Gqi5, hM3, hM4-Gq15, and hM5) in Greiner 384-well black-walled, tissue culture (TC)-treated, clear-bottom plates (VWR). Cells were incubated overnight at 37° C. and 5% CO2. The next day, cells were washed using an ELX 405 (BioTek) with three washes (50 μL) of assay buffer then aspirated to 15 μL. Next, 5 μL of 8 μM Fluo-4/acetoxymethyl ester (Invitrogen, Carlsbad, Calif.) prepared as a 2.3 mM stock in DMSO and mixed in a 1:1 ratio with 10% (w/v) Pluronic F-127 and diluted in assay buffer was added to the wells and the cell plates were incubated for 45 min at 37° C. and 5% CO2. Dye was removed by washing with the ELX 405 (three 50 μL washes of assay buffer) then aspirated to 20 μL. Agonist and compound master plates were formatted in an 11 point CRC format (1:3 dilutions) in 100% DMSO with a starting concentration of 10 mM using the BRAVO liquid handler (Agilent). Test compound CRCs were then transferred to daughter plates ([…]) using the Echo acoustic plate reformatter (Labcyte, Sunnyvale, Calif.) and then diluted into assay buffer (40 μL) to a 2× stock using a Thermo Fisher Combi (Thermo Fisher Scientific, Waltham, Mass.). Calcium flux was measured using the Functional Drug Screening System (FDSS) 6000 (Hamamatsu Corporation, Tokyo, Japan) as an increase in the fluorescent static ratio. 20 μL of Agonist Compounds were applied to cells using the automated system of the FDSS 6000 at 4 s into the 300 s protocol and the data were collected at 1 Hz. Concentration-response curves were generated using a four-parameter logistical equation in XLfit curve fitting software (IDBS, Bridgewater, N.J.) for Excel (Microsoft, Redmond, Wash.) or Prism (GraphPad Software, Inc., San Diego, Calif.).

hM3 receptor = biological target: T2, hM3 receptor (Homo sapiens, UniProt P20309); assay: Calcium mobilization assay, CHO cells stably expressing hM3; type: cell-based
T2 construct: expressed in transfected cells; host or cells: CHO cells (Levey et al., 1991)
T2 sequence (P20309 whole entry): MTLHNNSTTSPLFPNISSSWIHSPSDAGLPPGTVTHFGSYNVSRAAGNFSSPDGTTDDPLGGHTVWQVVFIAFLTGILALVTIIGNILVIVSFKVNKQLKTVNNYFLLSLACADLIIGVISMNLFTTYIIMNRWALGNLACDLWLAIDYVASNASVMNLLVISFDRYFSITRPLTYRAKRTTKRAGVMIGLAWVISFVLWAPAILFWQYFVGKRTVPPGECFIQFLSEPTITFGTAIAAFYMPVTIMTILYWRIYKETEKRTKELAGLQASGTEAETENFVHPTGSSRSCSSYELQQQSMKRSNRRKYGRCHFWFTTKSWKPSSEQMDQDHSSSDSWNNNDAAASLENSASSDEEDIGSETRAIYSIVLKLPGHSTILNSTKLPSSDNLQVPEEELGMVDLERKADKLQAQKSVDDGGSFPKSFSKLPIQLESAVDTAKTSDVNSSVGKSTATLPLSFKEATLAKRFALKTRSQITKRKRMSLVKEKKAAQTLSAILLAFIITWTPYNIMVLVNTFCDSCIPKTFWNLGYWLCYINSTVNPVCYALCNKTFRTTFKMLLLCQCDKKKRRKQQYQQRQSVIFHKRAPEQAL
Excerpt: Chinese hamster ovary (CHO-K1) cells stably expressing rat (r)M1 were purchased from the American Type Culture Collection and cultured according to their indicated protocol. CHO cells stably expressing human (h)M2, hM3, and hM5 were described previously (Levey et al., 1991); hM1 and hM4 cDNAs were purchased from Missouri S&T cDNA Resource; rM4 cDNA was provided by T. I. Bonner (National Institutes of Health, Bethesda, Md.). hM1, hM4, and rM4 cDNAs were used to stably transfect CHO-K1 cells purchased from the American Type Culture Collection using Lipofectamine2000. […]
For low throughput measurement of agonist-evoked increases in intracellular calcium, CHO-K1 cells stably expressing muscarinic receptors were plated in 100 μL of growth medium at 5×10^4 (rM1, hM3, and hM5) or 6×10^4 cells per well (rM1 Y381A, hM2, and rM4) in Costar 96-well black-walled, tissue culture (TC)-treated, clear-bottom plates (Fisher). […] For calcium fluorescence measurements, CRCs of compounds (50 μl, 2×) were added 19 s after the beginning of data collection via a Flexstation II (Molecular Devices, Sunnyvale, Calif.). Fluorescence imaging continued for a total of 130 s acquisition time using an excitation wavelength of 488 nm, an emission wavelength of 525 nm, and a cutoff wavelength of 515 nm. […]

SMILES | Emax (human M1 receptor) | EC50 (human M1 receptor; figure legends FIG. 1.0, 1.1, dose response data, read-out: EC50 for hM1) | EC50 (hM3 receptor) | EC50 (human M1 receptor) | EC50 (human M1 receptor; human M1, agonist-evoked calcium mobilization in CHO-K1 cells, read-out: Potency (EC50))
CCOC(=O)N1[C@@H]2CC[C@H]1C[C@H](NCCNC(=O)c1ccccc1)C2 [Example 26, ethyl 3-((3-exo)-(2-benzamidoethyl)amino)-8-azabicyclo[3.2.1]octane-8-carboxylate] | 57% | 1200 nM | > 10000 nM |  | 
CCOC(=O)N1[C@@H]2CC[C@H]1C[C@@H](NCCNC(=O)c1ccccc1)C2 [Example 27, ethyl 3-((3-endo)-(2-benzamidoethyl)amino)-8-azabicyclo[3.2.1]octane-8-carboxylate] | 37% |  | ~10000 nM | 214 nM | 210 nM
